In PubChem BioAssay (NCI):
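Each compound was tested at five concentrations against cells in 96-well plates for 48 hours. GI50: concentration for 50% inhibition of growth. TGI: total growth inhibition.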

Tests used:
Experiment in all cases: growth of human tumour cells (NCI), 48 h
786-0 renal = tested on: 786-0 renal
A498 renal = tested on: A498 renal
A549 NSCLC = tested on: A549 NSCLC
ACHN renal = tested on: ACHN renal
BT-549 breast = tested on: BT-549 breast
CAKI-1 renal = tested on: CAKI-1 renal
CCRF-CEM leukemia = tested on: CCRF-CEM leukemia
COLO 205 colon = tested on: COLO 205 colon
DU-145 prostate = tested on: DU-145 prostate
EKVX NSCLC = tested on: EKVX NSCLC
HCC-2998 colon = tested on: HCC-2998 colon
HCT-116 colon = tested on: HCT-116 colon
HCT-15 colon = tested on: HCT-15 colon
HL-60(TB) leukemia = tested on: HL-60(TB) leukemia
HOP-62 NSCLC = tested on: HOP-62 NSCLC
HOP-92 NSCLC = tested on: HOP-92 NSCLC
HS 578T breast = tested on: HS 578T breast
HT29 colon = tested on: HT29 colon
IGROV1 ovarian = tested on: IGROV1 ovarian
K-562 leukemia = tested on: K-562 leukemia
KM12 colon = tested on: KM12 colon
LOX IMVI melanoma = tested on: LOX IMVI melanoma
M14 melanoma = tested on: M14 melanoma
MALME-3M melanoma = tested on: MALME-3M melanoma
MCF7 breast = tested on: MCF7 breast
MDA-MB-231 breast = tested on: MDA-MB-231 breast
MDA-MB-435 = tested on: MDA-MB-435
MOLT-4 leukemia = tested on: MOLT-4 leukemia
NCI-H226 lung = tested on: NCI-H226 lung
NCI-H23 lung = tested on: NCI-H23 lung
NCI-H460 lung = tested on: NCI-H460 lung
NCI-H522 lung = tested on: NCI-H522 lung
NCI/ADR-RES ovarian = tested on: NCI/ADR-RES ovarian
OVCAR-3 ovarian = tested on: OVCAR-3 ovarian
OVCAR-4 ovarian = tested on: OVCAR-4 ovarian
OVCAR-5 ovarian = tested on: OVCAR-5 ovarian
OVCAR-8 ovarian = tested on: OVCAR-8 ovarian
PC-3 prostate = tested on: PC-3 prostate
RPMI-8226 leukemia = tested on: RPMI-8226 leukemia
RXF 393 renal = tested on: RXF 393 renal
SF-268 CNS = tested on: SF-268 CNS
SF-295 CNS = tested on: SF-295 CNS
SF-539 CNS = tested on: SF-539 CNS
SK-MEL-2 melanoma = tested on: SK-MEL-2 melanoma
SK-MEL-28 melanoma = tested on: SK-MEL-28 melanoma
SK-MEL-5 melanoma = tested on: SK-MEL-5 melanoma
SK-OV-3 ovarian = tested on: SK-OV-3 ovarian
SN12C renal = tested on: SN12C renal
SNB-19 CNS = tested on: SNB-19 CNS
SNB-75 CNS = tested on: SNB-75 CNS
SR leukemia = tested on: SR leukemia
SW-620 colon = tested on: SW-620 colon
T-47D breast = tested on: T-47D breast
TK-10 renal = tested on: TK-10 renal
U251 CNS = tested on: U251 CNS
UACC-257 melanoma = tested on: UACC-257 melanoma
UACC-62 melanoma = tested on: UACC-62 melanoma
UO-31 renal = tested on: UO-31 renal

Q: How did the GI50 (786-0 renal) turn out when `CCCC(=O)OCC1OC(n2cnc3c(=S)nc(N)[nH]c32)C(OC(=O)CCC)C1OC(=O)CCC` (stereo unspecified) was run?
A: 2.92 µM

Q: And the TGI (786-0 renal)?
A: 14.7 µM

Q: And the GI50 (A498 renal)?
A: 2.98 µM

Q: What about the TGI (A498 renal) of the same molecule?
A: > 35.9 µM

Q: And the GI50 (A549 NSCLC)?
A: 25.2 µM

Q: What about the TGI (A549 NSCLC) of the same molecule?
A: > 100 µM

Q: What about the GI50 (ACHN renal) of the same molecule?
A: 4.96 µM

Q: What about the TGI (ACHN renal) of the same molecule?
A: > 68 µM

Q: And the GI50 (BT-549 breast)?
A: 2.55 µM

Q: What about the TGI (BT-549 breast) of the same molecule?
A: 29.3 µM

Q: What about the GI50 (CAKI-1 renal) of the same molecule?
A: 2.4 µM

Q: What about the TGI (CAKI-1 renal) of the same molecule?
A: > 47.5 µM

Q: What about the GI50 (CCRF-CEM leukemia) of the same molecule?
A: 2.26 µM

Q: What about the TGI (CCRF-CEM leukemia) of the same molecule?
A: > 27.6 µM

Q: What about the GI50 (COLO 205 colon) of the same molecule?
A: 4.73 µM

Q: What about the TGI (COLO 205 colon) of the same molecule?
A: 14.6 µM

Q: What about the GI50 (DU-145 prostate) of the same molecule?
A: 2.54 µM

Q: What about the TGI (DU-145 prostate) of the same molecule?
A: 51.3 µM

Q: And the GI50 (EKVX NSCLC)?
A: 5.36 µM

Q: And the TGI (EKVX NSCLC)?
A: > 100 µM

Q: And the GI50 (HCC-2998 colon)?
A: 2.52 µM

Q: What about the TGI (HCC-2998 colon) of the same molecule?
A: 23.6 µM

Q: And the GI50 (HCT-116 colon)?
A: 2.72 µM

Q: What about the TGI (HCT-116 colon) of the same molecule?
A: 19.8 µM

Q: What about the GI50 (HCT-15 colon) of the same molecule?
A: 7.6 µM

Q: What about the TGI (HCT-15 colon) of the same molecule?
A: > 100 µM

Q: What about the GI50 (HL-60(TB) leukemia) of the same molecule?
A: 5.27 µM

Q: What about the TGI (HL-60(TB) leukemia) of the same molecule?
A: > 57.6 µM

Q: What about the GI50 (HOP-62 NSCLC) of the same molecule?
A: 2.05 µM

Q: What about the TGI (HOP-62 NSCLC) of the same molecule?
A: 15 µM

Q: What about the GI50 (HOP-92 NSCLC) of the same molecule?
A: 1.4 µM

Q: What about the TGI (HOP-92 NSCLC) of the same molecule?
A: > 48.3 µM

Q: And the GI50 (HS 578T breast)?
A: 12.5 µM

Q: And the TGI (HS 578T breast)?
A: > 95.7 µM

Q: What about the GI50 (HT29 colon) of the same molecule?
A: 5.63 µM

Q: What about the TGI (HT29 colon) of the same molecule?
A: 39.9 µM

Q: What about the GI50 (IGROV1 ovarian) of the same molecule?
A: 5.93 µM

Q: What about the TGI (IGROV1 ovarian) of the same molecule?
A: 45.8 µM

Q: What about the GI50 (K-562 leukemia) of the same molecule?
A: 3.92 µM

Q: And the TGI (K-562 leukemia)?
A: > 100 µM

Q: And the GI50 (KM12 colon)?
A: 3.76 µM

Q: And the TGI (KM12 colon)?
A: 22 µM

Q: And the GI50 (LOX IMVI melanoma)?
A: 0.574 µM

Q: What about the TGI (LOX IMVI melanoma) of the same molecule?
A: > 37 µM

Q: And the GI50 (M14 melanoma)?
A: 1.75 µM

Q: And the TGI (M14 melanoma)?
A: 9.32 µM

Q: And the GI50 (MALME-3M melanoma)?
A: 1.66 µM

Q: What about the TGI (MALME-3M melanoma) of the same molecule?
A: 36.5 µM

Q: And the GI50 (MCF7 breast)?
A: 2.79 µM

Q: And the TGI (MCF7 breast)?
A: 23.4 µM

Q: What about the GI50 (MDA-MB-231 breast) of the same molecule?
A: 4.42 µM

Q: What about the TGI (MDA-MB-231 breast) of the same molecule?
A: > 100 µM

Q: And the GI50 (MDA-MB-435)?
A: 3.41 µM

Q: And the TGI (MDA-MB-435)?
A: 46.9 µM

Q: What about the GI50 (MOLT-4 leukemia) of the same molecule?
A: 3.93 µM

Q: What about the TGI (MOLT-4 leukemia) of the same molecule?
A: > 85.3 µM

Q: And the GI50 (NCI-H226 lung)?
A: 5.47 µM

Q: What about the TGI (NCI-H226 lung) of the same molecule?
A: > 100 µM

Q: What about the GI50 (NCI-H23 lung) of the same molecule?
A: 4.01 µM

Q: And the TGI (NCI-H23 lung)?
A: 33 µM

Q: And the GI50 (NCI-H460 lung)?
A: 3.85 µM

Q: And the TGI (NCI-H460 lung)?
A: 19.3 µM

Q: What about the GI50 (NCI-H522 lung) of the same molecule?
A: 2.58 µM

Q: And the TGI (NCI-H522 lung)?
A: 14.2 µM

Q: And the GI50 (NCI/ADR-RES ovarian)?
A: 5.41 µM

Q: What about the TGI (NCI/ADR-RES ovarian) of the same molecule?
A: > 100 µM

Q: And the GI50 (OVCAR-3 ovarian)?
A: 2.08 µM

Q: And the TGI (OVCAR-3 ovarian)?
A: 6.19 µM

Q: And the GI50 (OVCAR-4 ovarian)?
A: 2.73 µM

Q: What about the TGI (OVCAR-4 ovarian) of the same molecule?
A: 35.8 µM

Q: And the GI50 (OVCAR-5 ovarian)?
A: 3.06 µM

Q: And the TGI (OVCAR-5 ovarian)?
A: > 85.5 µM

Q: And the GI50 (OVCAR-8 ovarian)?
A: 4.72 µM

Q: What about the TGI (OVCAR-8 ovarian) of the same molecule?
A: > 100 µM

Q: And the GI50 (PC-3 prostate)?
A: 3.42 µM

Q: What about the TGI (PC-3 prostate) of the same molecule?
A: > 100 µM

Q: What about the GI50 (RPMI-8226 leukemia) of the same molecule?
A: 3.97 µM

Q: And the TGI (RPMI-8226 leukemia)?
A: 57.6 µM

Q: What about the GI50 (RXF 393 renal) of the same molecule?
A: 4.89 µM

Q: What about the TGI (RXF 393 renal) of the same molecule?
A: 24.2 µM

Q: And the GI50 (SF-268 CNS)?
A: 4.1 µM

Q: And the TGI (SF-268 CNS)?
A: > 100 µM

Q: And the GI50 (SF-295 CNS)?
A: 0.906 µM

Q: And the TGI (SF-295 CNS)?
A: > 25 µM

Q: What about the GI50 (SF-539 CNS) of the same molecule?
A: 2.6 µM

Q: What about the TGI (SF-539 CNS) of the same molecule?
A: 18.4 µM

Q: What about the GI50 (SK-MEL-2 melanoma) of the same molecule?
A: 3.61 µM

Q: What about the TGI (SK-MEL-2 melanoma) of the same molecule?
A: > 44.5 µM

Q: What about the GI50 (SK-MEL-28 melanoma) of the same molecule?
A: 23.6 µM

Q: And the TGI (SK-MEL-28 melanoma)?
A: 98 µM

Q: And the GI50 (SK-MEL-5 melanoma)?
A: 6.43 µM

Q: And the TGI (SK-MEL-5 melanoma)?
A: 19.5 µM

Q: What about the GI50 (SK-OV-3 ovarian) of the same molecule?
A: 1.56 µM

Q: What about the TGI (SK-OV-3 ovarian) of the same molecule?
A: 9.94 µM

Q: And the GI50 (SN12C renal)?
A: 3.81 µM

Q: And the TGI (SN12C renal)?
A: > 100 µM

Q: What about the GI50 (SNB-19 CNS) of the same molecule?
A: 27 µM

Q: And the TGI (SNB-19 CNS)?
A: > 100 µM

Q: And the GI50 (SNB-75 CNS)?
A: 1.26 µM

Q: And the TGI (SNB-75 CNS)?
A: 12.2 µM

Q: What about the GI50 (SR leukemia) of the same molecule?
A: 1.03 µM

Q: And the TGI (SR leukemia)?
A: 36.3 µM

Q: And the GI50 (SW-620 colon)?
A: 5.68 µM

Q: And the TGI (SW-620 colon)?
A: > 77.7 µM

Q: What about the GI50 (T-47D breast) of the same molecule?
A: 3.37 µM

Q: What about the TGI (T-47D breast) of the same molecule?
A: 23 µM

Q: And the GI50 (TK-10 renal)?
A: 1.91 µM

Q: And the TGI (TK-10 renal)?
A: 16.4 µM

Q: And the GI50 (U251 CNS)?
A: 13.3 µM

Q: What about the TGI (U251 CNS) of the same molecule?
A: > 100 µM

Q: What about the GI50 (UACC-257 melanoma) of the same molecule?
A: 8.61 µM

Q: And the TGI (UACC-257 melanoma)?
A: > 100 µM

Q: And the GI50 (UACC-62 melanoma)?
A: 2.81 µM

Q: And the TGI (UACC-62 melanoma)?
A: 16 µM

Q: What about the GI50 (UO-31 renal) of the same molecule?
A: 3.99 µM

Q: And the TGI (UO-31 renal)?
A: > 95.5 µM
